Laboratory results published in PMC5349141, “Polyamines directly promote antizyme-mediated degradation of ornithine decarboxylase by the proteasome” (Microbial Cell, 2015).
Positions count from the first letter of the chain named.

Key:
[1] = target: T1, 6His-Oaz1 (antizyme, OAZ) (Saccharomyces cerevisiae, UniProt Q02803); assay: competition with [3H]-spermidine; type: binding; conditions: 10 µM [3H]-spermidine; competitive
T1 construct: full-length, in-frame OAZ1 (no ribosomal frameshift needed), 6His tag, from E. coli Rosetta (plasmid pDG240)
T1 sequence (Q02803 1-292): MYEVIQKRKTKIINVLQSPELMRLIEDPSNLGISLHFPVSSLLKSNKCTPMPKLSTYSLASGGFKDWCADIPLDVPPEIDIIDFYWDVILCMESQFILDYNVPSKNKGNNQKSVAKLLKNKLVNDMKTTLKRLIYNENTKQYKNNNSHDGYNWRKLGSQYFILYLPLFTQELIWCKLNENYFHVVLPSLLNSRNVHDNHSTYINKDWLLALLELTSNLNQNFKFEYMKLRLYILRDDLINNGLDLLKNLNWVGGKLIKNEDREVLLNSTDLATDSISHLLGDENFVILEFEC

[2] = target: T1, 6His-Oaz1 (antizyme, OAZ); assay: [3H]-spermidine retention by 6His-tagged protein; type: binding; conditions: labelled compound
[3] = target: T2, 6His-Oaz1 (antizyme, OAZ) (Saccharomyces cerevisiae, UniProt Q02803, L245A/L246A/K247A/W251A); assay: [3H]-spermidine retention by 6His-tagged protein; type: binding; conditions: labelled compound
T2 construct: full-length, in-frame OAZ1 (no ribosomal frameshift needed), 6His tag, from E. coli Rosetta (plasmid pDG240)
T2 sequence (Q02803 1-292 L245A/L246A/K247A/W251A): T1 sequence (Q02803 1-292) with L245A, L246A, K247A, W251A

26S proteasome = target: T3, 26S proteasome (Saccharomyces cerevisiae, UniProt P23724+P30656); assay: Suc-LLVY-AMC hydrolysis; type: biochemical; conditions: 1 mM ATP; 1 mM DTT; 5 mM MgCl2; pH 7.8; weak effect, site unknown
T3 construct: gene PRE2; anti-Flag beads; singly and doubly capped, some free 20S; with Proteasome subunit beta type-4; Proteasome subunit beta type-1; Proteasome subunit beta type-2; Proteasome subunit beta type-3; Proteasome subunit beta type-7; Proteasome subunit alpha type-1; Proteasome subunit alpha type-2; Proteasome subunit alpha type-3; Proteasome subunit alpha type-4; Proteasome subunit alpha type-5; Proteasome subunit alpha type-6; Proteasome subunit alpha type-7

CC(=O)NCCCNCCCCN [N1-acetylspermidine]
competition with [3H]-spermidine [1]: mono-acetylspermidine derivatives: "mono-acetylated spermidine derivatives showed a clearly reduced binding to antizyme"

NCCCCNCCCN [spd, spermidine]
[3H]-spermidine retention by 6His-tagged protein [2]: retention of [^3H]-spermidine by 6His-Oaz1 or 6His-Oaz1-4res
[3H]-spermidine retention by 6His-tagged protein [3]: Oaz1-4res bound [^3H]-spermidine with a similar efficiency as its wild-type counterpart

NCCCNCCCCNCCCN [spm, spermine]
activity versus spermine concentration (26S proteasome): A small reduction in proteasome activity was observed with polyamine addition

CC(=O)NCCCCNCCCN [N8-acetylspermidine]
competition with [3H]-spermidine [1]: mono-acetylated spermidine derivatives showed a clearly reduced binding to antizyme
